Experimental findings from the OPERA property sets (Mansouri et al. 2018) are described below.

The structures appear in SMILES notation.

Conditions in one data set: not given
`Cc1[nH]nc(Cl)c1[N+](=O)[O-]` came in with a melting point of 111 °C. On to `C=Cc1ccccc1C`, for which the boiling point came out at 170 °C, the log10 vapour pressure (mmHg) was found to be 0.268 and the melting point was -68.5 °C. For the molecule `CCN(C(=O)n1nnn(-c2ccccc2Cl)c1=O)C1CCCCC1`, the log10 vapour pressure (mmHg) is -9.43 and the melting point came to 79 °C.

With `Cc1cccc2c1Cc1ccccc1-2`, the log10 vapour pressure (mmHg) is -3.52 and the melting point was 85 °C.

Molecule `C=C(C)[C@@H]1CC[C@@H](C)[C@@H](O)C1` had a boiling point of 224 °C. In the case of `FC(Cl)(Cl)C(F)(Cl)Cl`, the boiling point was found to be 93 °C, the log10 vapour pressure (mmHg) amounted to 1.7, the melting point was 26 °C and the ready biodegradability entry is listed as “not readily biodegradable”.

With `CC(C)=CC(=O)C=C(C)C`, the boiling point stood at 198 °C, the log10 vapour pressure (mmHg) was -0.557 and the melting point was found to be 28 °C. Take `CCC#CCCC`: the boiling point turned out to be 107 °C and the melting point was -130 °C. Molecule `CCC(C(C)=O)C(=O)OC` (stereo not given) displayed a boiling point of 182 °C. In the case of `COP(=O)(OC)O/C(=C\Cl)c1ccc(Cl)cc1Cl`, the log10 vapour pressure (mmHg) is -5.01 and the melting point stood at 69.5 °C.

`CC(C)=CC(=O)Cl` registered a boiling point of 146 °C. Take `COc1ccc(O)c(C(C)(C)C)c1`: the ready biodegradability result is “not readily biodegradable”. For `Nc1ccc(Cc2ccc(N)cc2)cc1`, the boiling point was found to be 398 °C, the log10 Koc (L/kg) amounted to 1.99, the melting point worked out at 92.5 °C and the ready biodegradability entry is on record as “not readily biodegradable”. `C=CC[C@H](O)CCC` returned a boiling point of 152 °C. Take `O=C1c2ccccc2C(=O)c2c1ccc1ccccc21`: the melting point is 170 °C and the ready biodegradability entry is reported as “not readily biodegradable”. On to `OCC1CC23CCC1(CC2)CC3CO` (stereo not given), for which the ready biodegradability result is listed as “not readily biodegradable”. Molecule `O=C(O)Cc1ccc(O)cc1` showed a melting point of 152 °C. Regarding `C=CCCC`, the boiling point amounted to 29.9 °C, the log10 Koa stood at 1.93, the log10 vapour pressure (mmHg) is 2.8 and the melting point was -165 °C. Consider `Brc1ccc(Oc2ccccc2)cc1Br`, for which the log10 Koa came to 8.55. Consider `CCc1nccnc1OC`, for which the log10 Henry constant (atm·m³/mol) is -4.83. Take `OC1CCOC1` (stereo not given): the boiling point stood at 181 °C.

For `Brc1ccccc1-c1ccccc1`, the boiling point came out at 297 °C and the melting point amounted to 1.5 °C. Consider `CCCCCCCCCCCCCC(=O)OCc1ccccc1`, for which the melting point was found to be 20.5 °C. Regarding `CC(C(=O)O)c1ccc(N2Cc3ccccc3C2=O)cc1` (stereo not given), the melting point stood at 214 °C. `CCOC(=O)COC(=O)c1ccccc1C(=O)OCC` had a log10 Koc (L/kg) of 2.54. In turn, `CCCCCCCCCCC(=O)CC` registered a melting point of 31 °C. Turning to `CCCCCCCCCCCCOS(=O)(=O)c1ccccc1`, the ready biodegradability entry is “readily biodegradable”.

As for `NNC(=O)c1ccc(Cl)cc1`, the melting point amounted to 164 °C.

`Oc1c(C2CCCCC2)cccc1C1CCCCC1`: the ready biodegradability entry is “not readily biodegradable”.

`O=CC(Cl)Cl` registered a boiling point of 89.2 °C and a log10 vapour pressure (mmHg) of 1.74. As for `CCCC(=O)C(=O)CCC`, the boiling point amounted to 168 °C.

Molecule `Cc1cc(NS(=O)(=O)c2ccc(N)cc2)nc(C)n1` showed a melting point of 243 °C.

Regarding `CSC`, the boiling point was found to be 37.3 °C, the log10 Henry constant (atm·m³/mol) is -2.79, the log10 vapour pressure (mmHg) is 2.7 and the melting point was -98.3 °C.

For the molecule `CCCCCCCCCCC#N`, the boiling point amounted to 253 °C.

Consider `O=CC=Cc1ccccc1`, for which the boiling point is 246 °C, the log10 vapour pressure (mmHg) was -1.54 and the melting point was -7.5 °C. As to `C/C=C\C(C)(C)C`, the boiling point stood at 80.4 °C and the melting point was -135 °C.

For `C[C@]12C[C@H]3S[C@H]3C[C@@H]1CC[C@@H]1[C@@H]2CC[C@]2(C)[C@@H](O)CC[C@@H]12`, the melting point is 127 °C. On to `OCCCO`, for which the boiling point was determined as 214 °C, the log10 vapour pressure (mmHg) is -1.36 and the melting point was -26.7 °C.

In the case of `c1ccc(-c2nnc(-c3ccccc3)o2)cc1`, the melting point worked out at 139 °C. Molecule `CC=CC#N` came in with a boiling point of 120 °C and a log10 vapour pressure (mmHg) of 1.5. Take `COc1c(Cl)c(Cl)c([N+](=O)[O-])c(Cl)c1Cl`: the melting point came out at 103 °C. In turn, `Clc1ccc(CSc2ccc(Cl)cc2)cc1` showed a melting point of 75 °C.

With `C[Si](C)(Cl)CCl`, the boiling point was 116 °C.

`NCc1ccc(Br)cc1` displayed a boiling point of 250 °C and a melting point of 20 °C. As for `CCCCCCCC/C=C/CCCCCCCC(=O)O`, the melting point amounted to 29.2 °C. As to `CCC(C)C(C)C` (stereo not given), the boiling point is 89.7 °C, the log10 biodegradation half-life (days) stood at 0.845 and the log10 vapour pressure (mmHg) came to 1.84. As to `Cc1cccc(C(C)c2ccccc2)c1C` (stereo not given), the ready biodegradability entry was “not readily biodegradable”. `CC(S)C(=O)NCC(=O)O` (stereo not given) registered a melting point of 96 °C. On to `C=CC=COC`, for which the boiling point was 91.5 °C.

In turn, `Cc1ccccc1C=O` came in with a boiling point of 200 °C. Take `Clc1cc(Cl)c(Cl)c(-c2ccc(Cl)c(Cl)c2Cl)c1`: the log10 Henry constant (atm·m³/mol) was -4.43. As for `CCC(C)CC(C)(C)C` (stereo not given), the boiling point came out at 126 °C, the log10 vapour pressure (mmHg) is 1.2 and the melting point was -120 °C. Consider `CC(C)C(C)(C)C`, for which the boiling point worked out at 80.8 °C, the log10 biodegradation half-life (days) is 0.778, the log10 vapour pressure (mmHg) was found to be 2.01 and the melting point was -25 °C.

`O=[N+]([O-])c1ccc(S(=O)(=O)O)cc1`: the ready biodegradability entry is recorded as “not readily biodegradable”.

In the case of `COC(=O)C1(S(=O)(=O)c2ccccc2)CCCCC1`, the melting point was 114 °C. Same read-out and setting: the figure for `O=C(Nc1ccc(Br)cc1)c1c(O)cccc1O` is 229 °C; for `CC1(C)CC(=O)NC(=O)C1` it is 145 °C. `CC[C@H](C)CC=O`: the boiling point amounted to 121 °C. Regarding `COc1nc(Cl)c(Cl)cc1Cl`, the log10 Koc (L/kg) turned out to be 2.96. For `CC(C)NCCCC1(C(N)=O)c2ccccc2-c2ccccc21`, the melting point turned out to be 94.5 °C. Take `COP(=S)(OC)Oc1cc(Cl)c(Cl)cc1Cl`: the log10 vapour pressure (mmHg) was -4.12 and the melting point is 41 °C.

Consider `Cc1cc2c(cc1Nc1ccccc1)C1(OC(=O)c3ccccc31)c1ccc(N(C)C3CCCCC3)cc1O2` (stereo not given), for which the ready biodegradability entry was “not readily biodegradable”. In turn, `Cc1cc(=O)oc2cc(O)ccc12` showed a melting point of 196 °C. For `C[Si](F)(F)c1ccccc1`, the log10 vapour pressure (mmHg) was 0.881. `C#CCC=C` displayed a boiling point of 42.5 °C. `CC(C)(C)C`: the boiling point came to 9.5 °C, the log10 vapour pressure (mmHg) turned out to be 3.11 and the melting point was -16.4 °C. Molecule `C1=COCCO1` displayed a boiling point of 94.1 °C. With `Clc1cc(Cl)c(Cl)c(Oc2ccccc2)c1`, the log10 vapour pressure (mmHg) is -3.66. As to `OCCCc1ccccc1`, the boiling point is 235 °C, the log10 Henry constant (atm·m³/mol) was -6.69 and the log10 vapour pressure (mmHg) was -1.7. For `CCCCCCCCCCCCc1ccccc1O`, the ready biodegradability entry is “not readily biodegradable”. In the case of `FC(F)(F)C(F)(F)C(F)(F)C(F)(F)C(F)(F)C(F)(F)C(F)(F)F`, the boiling point came to 82.5 °C, the log10 vapour pressure (mmHg) worked out at 1.88 and the melting point was -78 °C. Consider `Clc1ccc(Cc2ccccc2)cc1`, for which the boiling point amounted to 299 °C and the melting point was determined as 7.5 °C. As for `O=C(C=Cc1ccccc1)c1ccccc1O`, the melting point stood at 90 °C. `c1cc(-c2ccncc2)ccn1`: the boiling point was 305 °C, the log10 vapour pressure (mmHg) is -4.25 and the melting point stood at 111 °C. For the molecule `CC(=O)Nc1c(C)cccc1C`, the melting point is 183 °C.

Still in this data set, the particulars now being: fish.
For the molecule `FC(Cl)(Cl)C(F)(Cl)Cl`, the log10 BCF was 1.77.

Molecule `Nc1ccc(Cc2ccc(N)cc2)cc1` displayed a log10 BCF of 1.18. For `O=C1c2ccccc2C(=O)c2c1ccc1ccccc21`, the log10 BCF came out at 1.69 and the log10 biotransformation half-life (days) was -0.84. For `Oc1c(C2CCCCC2)cccc1C1CCCCC1` the same measures were 3.02 and 0.2. `COP(=S)(OC)Oc1cc(Cl)c(Cl)cc1Cl` yielded a log10 BCF of 3.58 and a log10 biotransformation half-life (days) of 0.95.
